Reference: ChEMBL document CHEMBL1201862, “PubChem BioAssay data set” (2004)
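Five concentrations, 48 hours, 96-well plates. GI50 is the concentration that inhibits growth by half.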 Active and inactive are the calls of the source. Rule as the data show it: active = GI50 up to about 1.1 µM and inactive = higher.

Assays:
Experiment in all cases: NCI anticancer screen, dose series, 48 h
MDA-MB-231 = test system: MDA-MB-231
NCI-H23 = test system: NCI-H23
TK-10 = test system: TK-10
CAKI-1 = test system: CAKI-1
T47D = test system: T47D
786-0 = test system: 786-0
K562 = test system: K562
SW-620 = test system: SW-620
SNB-19 = test system: SNB-19
OVCAR-8 = test system: OVCAR-8
HT-29 = test system: HT-29
UO-31 = test system: UO-31
HCT-15 = test system: HCT-15
SR = test system: SR
EKVX = test system: EKVX
PC-3 = test system: PC-3
HCT-116 = test system: HCT-116
Malme-3M = test system: Malme-3M
SK-MEL-2 = test system: SK-MEL-2
NCI-H460 = test system: NCI-H460

| SMILES | GI50 (MDA-MB-231) | GI50 (NCI-H23) | GI50 (TK-10) | GI50 (CAKI-1) | GI50 (T47D) | GI50 (786-0) | GI50 (K562) | GI50 (SW-620) | GI50 (SNB-19) | GI50 (OVCAR-8) | GI50 (HT-29) | GI50 (UO-31) | GI50 (HCT-15) | GI50 (SR) | GI50 (EKVX) | GI50 (PC-3) | GI50 (HCT-116) | GI50 (Malme-3M) | GI50 (SK-MEL-2) | GI50 (NCI-H460) |
| --- | --- | --- | --- | --- | --- | --- | --- | --- | --- | --- | --- | --- | --- | --- | --- | --- | --- | --- | --- | --- |
| CCSc1nc(N2CCOCC2)c2cn[nH]c2n1 | > 100 µM (inactive) | 48.1 µM (inactive) | 47.8 µM (inactive) | 28.2 µM (inactive) | 9.73 µM (inactive) | > 100 µM (inactive) | > 100 µM (inactive) | > 100 µM (inactive) | > 100 µM (inactive) | > 100 µM (inactive) | > 100 µM (inactive) | 21.5 µM (inactive) | 65.5 µM | 56.1 µM (inactive) | > 100 µM (inactive) | 22.1 µM (inactive) | > 100 µM (inactive) | > 100 µM (inactive) | 41.5 µM (inactive) | 49.9 µM (inactive) |
| O=C(O)CC1NCc2cc3ccccc3nc21 (stereo not given) | > 100 µM (inactive) | > 100 µM (inactive) | > 100 µM (inactive) | > 100 µM (inactive) | > 100 µM (inactive) | > 100 µM (inactive) | > 100 µM (inactive) | > 100 µM (inactive) | > 100 µM (inactive) | > 100 µM (inactive) | > 100 µM (inactive) | > 100 µM (inactive) | > 100 µM | > 100 µM (inactive) | 61.9 µM (inactive) | > 100 µM (inactive) | > 100 µM (inactive) | > 100 µM (inactive) | > 100 µM (inactive) | > 100 µM (inactive) |
| O=C(COc1ccccc1)N(C(=O)N1CCN(c2ccccc2)CC1)S(=O)(=O)c1ccccc1 | 52 µM (inactive) | > 100 µM (inactive) | > 100 µM (inactive) | > 100 µM (inactive) | 34.8 µM (inactive) | 44.2 µM (inactive) | 33.8 µM (inactive) | 42.5 µM (inactive) | 83.2 µM (inactive) | 35.2 µM (inactive) | 43.5 µM (inactive) | 94.6 µM (inactive) | 47.5 µM | 21.7 µM (inactive) | > 100 µM (inactive) | 50.5 µM (inactive) | 44 µM (inactive) | > 100 µM (inactive) | > 100 µM (inactive) | 71.9 µM (inactive) |
| O=C(CC(NC(=O)C(F)(F)F)C(=O)O)OCc1ccccc1 (stereo not given) | > 100 µM (inactive) | > 100 µM (inactive) | > 100 µM (inactive) | > 100 µM (inactive) | > 100 µM (inactive) | > 100 µM (inactive) | > 100 µM (inactive) | > 100 µM (inactive) | > 100 µM (inactive) | > 100 µM (inactive) | > 100 µM (inactive) | > 100 µM (inactive) | > 100 µM | > 100 µM (inactive) | > 100 µM (inactive) | > 100 µM (inactive) | > 100 µM (inactive) | > 100 µM (inactive) | > 100 µM (inactive) | > 100 µM (inactive) |
| N#CC1N(C(=O)c2ccc(F)cc2)c2ccccc2N1C(=O)c1ccc(F)cc1 | 46.7 µM (inactive) | 50.4 µM (inactive) | 50.9 µM (inactive) | 62.8 µM (inactive) | 27.2 µM (inactive) | 74.5 µM (inactive) | 28.2 µM (inactive) | 47.9 µM (inactive) | > 100 µM (inactive) | 48.1 µM (inactive) | 33 µM (inactive) | 37.7 µM (inactive) | 31.3 µM | 70.3 µM (inactive) | 44.4 µM (inactive) | 49.1 µM (inactive) | 42.3 µM (inactive) | 68.9 µM (inactive) | > 100 µM (inactive) | 38.2 µM (inactive) |
| Cc1nc2ccccc2n1COC(Cn1ccnc1)c1ccc(Cl)cc1Cl (stereo not given) | > 100 µM (inactive) | 55.8 µM (inactive) | 83.9 µM (inactive) | 17.4 µM (inactive) | 41.7 µM (inactive) | 75.7 µM (inactive) | 42.8 µM (inactive) | > 100 µM (inactive) | > 100 µM (inactive) | 94 µM (inactive) | 62.2 µM (inactive) | 25.6 µM (inactive) | 34.8 µM | 60.3 µM (inactive) | 7.1 µM (inactive) | 23.4 µM (inactive) | 53.7 µM (inactive) | > 100 µM (inactive) | 64 µM (inactive) | 15.3 µM (inactive) |
